Patent publication US20230348487A1, “2-AMINOPYRIMIDINE COMPOUND AND PHARMACEUTICAL COMPOSITION THEREOF AND APPLICATION THEREOF” (GUANGZHOU SALUSTIER BIOSCIENCES CO., LTD., priority 2021, published 2023)
Where “and” joins values, the source holds several entries; their conditions need not be identical. Equal values may be shown once. Read-outs that look alike come from different tables or passages of the source.

What was measured:
[1] = system: human chronic myeloid leukemia cell line K562; experiment: CCK-8 in vitro proliferation inhibition; assay type: cell-based; settings: read-out: Inhibitory activity (IC50) on cell proliferation, K562
Description: (§1) Cell lines: human chronic myeloid leukemia cell line K562, human acute myeloid leukemia cell line U937, human T lymphocyte leukemia cell line HuT78, and human T lymphoblastic lymphoma cell line Jurkat. Cells were purchased from the Chinese Academy of Sciences Stem Cell Bank or ATCC.
(§2) […] were cultured overnight and suspended cells were directly stimulated with drugs. […] Two repeats were set for each concentration, with a final volume of 200 μL. […] The absorbance values at 450 nm and 650 nm were measured using a microplate reader, and the increment Z (A450-A650) was derived. The inhibitory rate of drugs on cell growth was calculated by GraphPad Prism 8.0.0 through the following formula:
(§3) Inhibition rate (%)(ODcontrol−ODdosing)/ODcontrol×100%
(§4) The half inhibitory concentration (IC50) was calculated. Every experiment was repeated at least three times.

[2] = system: human T lymphoblastic lymphoma cell line Jurkat; experiment: CCK-8 in vitro proliferation inhibition; assay type: cell-based; settings: 72 hours, read-out: Inhibitory activity (IC50) on cell proliferation, JURKAT
Description: as §1, §2, §3, §4

[3] = system: human acute myeloid leukemia cell line U937; experiment: CCK-8 in vitro proliferation inhibition; assay type: cell-based; settings: read-out: Inhibitory activity (IC50) on cell proliferation, U937
Description: as §1, §2, §3, §4

[4] = system: human T lymphocyte leukemia cell line HuT78; experiment: CCK-8 in vitro proliferation inhibition; assay type: cell-based; settings: read-out: Inhibitory activity (IC50) on cell proliferation, HUT78
Description: as §1, §2, §3, §4

JAK1 = JAK1 (Homo sapiens (Human), UniProt P23458); experiment: Z′-Lyte kinase inhibitory activity test; assay type: biochemical; settings: ATP concentration Km
Description: (§5) Test method: Firstly, test compounds were prepared into 10 mM stock solution with DMSO, and continuously diluted into 10 concentrations at a 3-fold gradient for later use. 5X reaction buffer was diluted with deionized water into 1×reaction buffer (50 mM HEPES pH 7.5, 0.01% Brij-35, 10 mM MgCl2, 1 mM EGTA), which was used to prepare a mixture of kinase and peptide substrate, as well as a phosphorylated peptide substrate solution. The kinase concentration was determined based on enzyme titration, and the final concentration of peptide substrate and phosphorylated peptide substrate was 2 μM. 5 μL of mixture substrate of kinase and peptide substrate was added to each well on the 384 well plate. Then 5 nL of the test compound (starting with a final concentration of 10 μM) was added with an Echo520 Sampler. […] An additional 100% phosphorylation well (5 μL phosphorylated peptide substrate solution), a 0% phosphorylated well (5 μL of a mixture of kinase and peptide substrate, without test compounds and ATP), and a 0% inhibitory well (5 μL of a mixture of kinase and peptide substrate and appropriate concentration of ATP) were set as control. Two repeats were set for each concentration. The above reaction system was incubated at 30° C. for 1.5 hours. […] 2.5 μL of the diluted mixture was added to each well and the system was incubated at 30° C. for another 1 hour. […] The substrate phosphorylation rate was obtained by calculating the ratio, and the activity of the kinase and the effect of the inhibitor on the kinase was further calculated. Every experiment was repeated at least three times.

TYK2 = TYK2 (Homo sapiens (Human), UniProt P29597); experiment: Z′-Lyte kinase inhibitory activity test; assay type: biochemical; settings: ATP concentration Km
Description: as §5

JAK2 = JAK2 (Homo sapiens (Human), UniProt O60674); experiment: Z′-Lyte kinase inhibitory activity test; assay type: biochemical
Description: as §5

JAK3 = JAK3 (Homo sapiens (Human), UniProt P52333); experiment: Z′-Lyte kinase inhibitory activity test; assay type: biochemical; settings: for JAK3 kinase inhibitory activity and selectivity (in words): summary of Table 3, activity maintained at ATP 1 mM
Description: as §5

JAK3, sequence (P52333 whole entry): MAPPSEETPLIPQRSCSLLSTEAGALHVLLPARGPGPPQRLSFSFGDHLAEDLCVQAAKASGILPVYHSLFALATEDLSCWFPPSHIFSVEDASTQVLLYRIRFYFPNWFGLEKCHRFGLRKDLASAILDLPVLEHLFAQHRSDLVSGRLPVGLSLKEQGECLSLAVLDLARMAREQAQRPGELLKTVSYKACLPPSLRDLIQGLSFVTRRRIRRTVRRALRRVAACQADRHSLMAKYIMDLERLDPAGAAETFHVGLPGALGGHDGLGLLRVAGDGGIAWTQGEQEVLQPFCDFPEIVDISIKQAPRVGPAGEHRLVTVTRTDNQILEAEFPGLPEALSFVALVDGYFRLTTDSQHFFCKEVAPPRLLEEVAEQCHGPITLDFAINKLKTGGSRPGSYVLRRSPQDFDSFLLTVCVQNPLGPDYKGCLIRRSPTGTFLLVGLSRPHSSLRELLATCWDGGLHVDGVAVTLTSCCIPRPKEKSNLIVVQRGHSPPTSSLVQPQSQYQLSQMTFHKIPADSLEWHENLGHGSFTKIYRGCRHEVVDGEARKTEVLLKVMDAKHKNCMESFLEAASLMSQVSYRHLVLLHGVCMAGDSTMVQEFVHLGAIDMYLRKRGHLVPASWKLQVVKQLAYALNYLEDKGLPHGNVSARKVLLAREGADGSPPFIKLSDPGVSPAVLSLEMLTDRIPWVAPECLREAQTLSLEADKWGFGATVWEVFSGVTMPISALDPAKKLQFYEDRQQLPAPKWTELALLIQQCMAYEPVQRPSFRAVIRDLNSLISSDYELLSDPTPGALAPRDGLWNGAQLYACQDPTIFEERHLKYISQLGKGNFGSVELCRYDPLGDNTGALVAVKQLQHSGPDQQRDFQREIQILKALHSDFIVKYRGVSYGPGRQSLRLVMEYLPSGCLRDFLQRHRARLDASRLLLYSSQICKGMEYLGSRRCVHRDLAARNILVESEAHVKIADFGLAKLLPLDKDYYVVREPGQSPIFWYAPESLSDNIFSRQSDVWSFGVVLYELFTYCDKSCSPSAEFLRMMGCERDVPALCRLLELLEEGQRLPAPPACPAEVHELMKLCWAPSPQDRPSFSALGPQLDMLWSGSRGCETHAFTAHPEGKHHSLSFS
JAK1, sequence (P23458 whole entry): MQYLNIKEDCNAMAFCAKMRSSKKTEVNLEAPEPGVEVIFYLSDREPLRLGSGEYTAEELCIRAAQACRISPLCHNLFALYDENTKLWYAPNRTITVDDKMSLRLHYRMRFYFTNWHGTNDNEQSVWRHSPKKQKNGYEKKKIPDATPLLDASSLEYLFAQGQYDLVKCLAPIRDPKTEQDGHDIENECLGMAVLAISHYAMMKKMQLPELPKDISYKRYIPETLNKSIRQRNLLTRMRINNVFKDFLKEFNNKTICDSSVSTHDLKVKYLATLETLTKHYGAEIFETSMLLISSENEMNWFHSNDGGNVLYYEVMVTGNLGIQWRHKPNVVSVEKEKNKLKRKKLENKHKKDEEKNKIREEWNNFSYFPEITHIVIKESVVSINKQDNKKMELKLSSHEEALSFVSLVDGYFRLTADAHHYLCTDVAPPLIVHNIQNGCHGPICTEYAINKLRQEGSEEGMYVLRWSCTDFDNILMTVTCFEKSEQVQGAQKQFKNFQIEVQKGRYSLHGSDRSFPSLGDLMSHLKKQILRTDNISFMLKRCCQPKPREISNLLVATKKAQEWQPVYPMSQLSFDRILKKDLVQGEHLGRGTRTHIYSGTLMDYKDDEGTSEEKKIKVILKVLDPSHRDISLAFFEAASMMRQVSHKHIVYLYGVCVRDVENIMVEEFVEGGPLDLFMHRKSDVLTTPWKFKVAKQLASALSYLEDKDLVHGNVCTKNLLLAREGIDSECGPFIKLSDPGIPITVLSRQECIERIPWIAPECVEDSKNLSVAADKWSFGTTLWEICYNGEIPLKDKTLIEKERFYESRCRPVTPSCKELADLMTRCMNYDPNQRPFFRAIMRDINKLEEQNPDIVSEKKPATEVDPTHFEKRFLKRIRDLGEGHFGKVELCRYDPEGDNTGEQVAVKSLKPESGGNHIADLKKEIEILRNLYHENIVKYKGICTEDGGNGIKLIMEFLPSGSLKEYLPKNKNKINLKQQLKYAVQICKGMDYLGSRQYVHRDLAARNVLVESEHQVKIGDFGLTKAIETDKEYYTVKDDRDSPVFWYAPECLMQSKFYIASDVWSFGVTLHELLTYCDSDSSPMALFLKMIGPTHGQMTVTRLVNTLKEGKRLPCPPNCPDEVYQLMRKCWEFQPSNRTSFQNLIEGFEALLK
JAK2, sequence (O60674 whole entry): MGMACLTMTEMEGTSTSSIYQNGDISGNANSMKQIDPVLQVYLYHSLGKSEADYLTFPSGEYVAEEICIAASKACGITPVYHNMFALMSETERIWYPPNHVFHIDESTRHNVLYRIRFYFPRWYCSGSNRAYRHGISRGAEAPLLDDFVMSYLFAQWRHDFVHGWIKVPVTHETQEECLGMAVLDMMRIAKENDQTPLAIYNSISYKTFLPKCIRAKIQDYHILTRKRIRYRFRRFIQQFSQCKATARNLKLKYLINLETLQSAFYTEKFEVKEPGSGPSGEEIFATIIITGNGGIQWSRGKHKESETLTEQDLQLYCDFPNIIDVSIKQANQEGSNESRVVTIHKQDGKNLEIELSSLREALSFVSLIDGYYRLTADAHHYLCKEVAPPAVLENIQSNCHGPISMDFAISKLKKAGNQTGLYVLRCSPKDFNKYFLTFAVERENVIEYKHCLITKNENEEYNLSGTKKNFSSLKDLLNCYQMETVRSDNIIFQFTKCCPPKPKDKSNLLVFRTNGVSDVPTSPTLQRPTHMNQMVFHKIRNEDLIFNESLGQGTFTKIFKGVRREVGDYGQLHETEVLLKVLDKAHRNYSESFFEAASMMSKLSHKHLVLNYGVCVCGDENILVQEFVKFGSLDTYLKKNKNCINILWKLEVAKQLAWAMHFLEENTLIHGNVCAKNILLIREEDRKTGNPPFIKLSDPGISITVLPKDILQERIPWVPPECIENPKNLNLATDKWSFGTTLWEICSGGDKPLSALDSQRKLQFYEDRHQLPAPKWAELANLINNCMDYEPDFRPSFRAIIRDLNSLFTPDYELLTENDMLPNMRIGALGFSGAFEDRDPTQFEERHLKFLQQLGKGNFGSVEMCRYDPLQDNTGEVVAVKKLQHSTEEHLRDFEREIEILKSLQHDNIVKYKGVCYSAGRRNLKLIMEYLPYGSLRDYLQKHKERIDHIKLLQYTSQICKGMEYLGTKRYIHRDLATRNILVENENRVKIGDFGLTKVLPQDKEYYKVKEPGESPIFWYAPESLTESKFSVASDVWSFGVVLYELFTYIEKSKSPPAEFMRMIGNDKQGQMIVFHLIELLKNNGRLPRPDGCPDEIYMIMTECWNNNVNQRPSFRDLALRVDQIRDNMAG
TYK2, sequence (P29597 whole entry): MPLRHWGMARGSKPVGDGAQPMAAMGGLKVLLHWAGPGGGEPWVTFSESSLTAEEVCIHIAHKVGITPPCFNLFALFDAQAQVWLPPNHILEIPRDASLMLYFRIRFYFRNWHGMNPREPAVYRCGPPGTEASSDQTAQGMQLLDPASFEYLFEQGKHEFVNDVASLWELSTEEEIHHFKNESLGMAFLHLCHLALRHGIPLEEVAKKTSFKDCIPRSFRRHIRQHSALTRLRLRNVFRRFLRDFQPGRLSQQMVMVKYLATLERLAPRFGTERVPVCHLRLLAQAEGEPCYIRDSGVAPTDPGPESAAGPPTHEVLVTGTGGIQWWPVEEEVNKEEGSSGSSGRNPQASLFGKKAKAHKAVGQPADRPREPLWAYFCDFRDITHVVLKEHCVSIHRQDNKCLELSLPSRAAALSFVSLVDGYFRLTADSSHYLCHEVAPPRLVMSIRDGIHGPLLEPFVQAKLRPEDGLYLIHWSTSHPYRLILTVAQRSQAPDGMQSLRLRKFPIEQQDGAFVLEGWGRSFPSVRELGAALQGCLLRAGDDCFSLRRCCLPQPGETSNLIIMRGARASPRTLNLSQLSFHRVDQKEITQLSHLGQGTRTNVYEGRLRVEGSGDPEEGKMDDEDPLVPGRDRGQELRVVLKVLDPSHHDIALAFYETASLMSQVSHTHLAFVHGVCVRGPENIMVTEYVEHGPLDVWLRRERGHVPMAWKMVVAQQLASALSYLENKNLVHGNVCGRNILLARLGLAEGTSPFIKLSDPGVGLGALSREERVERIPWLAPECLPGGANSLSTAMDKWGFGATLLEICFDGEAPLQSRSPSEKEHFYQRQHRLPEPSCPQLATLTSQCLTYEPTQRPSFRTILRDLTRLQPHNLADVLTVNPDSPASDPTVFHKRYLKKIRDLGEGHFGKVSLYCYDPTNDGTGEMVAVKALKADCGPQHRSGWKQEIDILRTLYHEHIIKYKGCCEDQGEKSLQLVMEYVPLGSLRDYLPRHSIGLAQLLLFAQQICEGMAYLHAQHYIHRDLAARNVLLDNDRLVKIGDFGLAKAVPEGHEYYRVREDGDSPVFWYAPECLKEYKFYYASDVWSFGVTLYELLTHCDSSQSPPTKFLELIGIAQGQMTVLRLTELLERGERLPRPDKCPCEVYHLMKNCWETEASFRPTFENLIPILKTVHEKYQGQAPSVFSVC

SMILES	IC50 ([1]; Homo sapiens, K562, 72 hours) [nM]	IC50 ([2]; Homo sapiens, Jurkat) [nM]	IC50 ([3]; Homo sapiens, U-937, 72 hours) [nM]	IC50 ([4]; Homo sapiens, HuT78, 72 hours) [nM]	IC50 (JAK1) [nM]	IC50 (TYK2) [nM]	IC50 (JAK2; ATP concentration Km) [nM]	IC50 (JAK3; ATP concentration 1 mM) [µM]	IC50 (JAK3; ATP concentration Km) [µM]	IC50 (JAK3; ATP concentration 1 mM, in μM) [µM]	JAK3 kinase inhibitory activity and selectivity (in words) (JAK3)	IC50 ([1]; 72 hours) [nM]	IC50 [2] [nM]	IC50 ([3]; 72 hours) [nM]	IC50 ([4]; 72 hours) [nM]	IC50 (JAK2) [nM]	IC50 (JAK3)
C=CC(=O)Nc1cc(Nc2ncc(Cl)c(O[C@@H]3CO[C@H]4[C@@H]3OC[C@H]4O)n2)ccc1N1C[C@H]2C[C@@H]1CN2C [LS 5-154]	2410	346	34	717	800	188	524	0.00159	0.00156	–	strong and selective JAK3 kinase inhibitory activity	–	–	–	–	–	–
C=CC(=O)Nc1cc(Nc2ncc(Cl)c(O[C@@H]3CO[C@H]4[C@@H]3OC[C@H]4O)n2)ccc1F [LS 5-62]	–	–	–	–	1060	860	–	–	–	–	strong and selective JAK3 kinase inhibitory activity	637	2460	111	423	11000	0.0022 µM and 0.00226 µM
C=CC(=O)Nc1cc(Nc2ncc(Cl)c(O[C@@H]3CO[C@H]4[C@@H]3OC[C@H]4O)n2)ccc1N1CCC(N2CCN(C)CC2)CC1 [LS 5-12, N-(5-((5-chloro-4-(((3R,3aR,6R, 6aR)-6-hydroxyhexahydrofurano[3,2-b]furan-3-yl)oxygen)pyrimidin-2-yl)amino)-2-(4-(4-methylpiperazin-1-yl)piperidin-1-yl)phenyl) acrylamide]	–	–	–	–	1540	369	–	–	–	–	strong and selective JAK3 kinase inhibitory activity	290	434	35.9	31.7	1030	–
CN1CCN(C2CCN(c3ccc(Nc4ncc(Cl)c(O[C@@H]5CO[C@H]6[C@@H]5OC[C@H]6O)n4)cc3)CC2)CC1 [LS 4-145]	822	9030	516	2390	470	301	981	4.29	0.066	–	–	–	–	–	–	–	–
C=CC(=O)Nc1cc(Nc2ncc(Cl)c(O[C@@H]3CO[C@H]4[C@@H]3OC[C@H]4OC)n2)ccc1N1CCC(N2CCN(C)CC2)CC1 [LS 6-16]	–	–	–	–	533	906	–	–	–	–	–	191	136	24	121	967	0.00812 µM and 0.0125 µM
CN(C)C/C=C/C(=O)Nc1cc(Nc2ncc(Cl)c(O[C@@H]3CO[C@H]4[C@@H]3OC[C@H]4O)n2)ccc1N1CCC(N2CCN(C)CC2)CC1 [LS 5-81]	5980	3050	227	1060	4880	278	2360	4.19	0.057	–	–	–	–	–	–	–	–
C=CC(=O)Nc1cccc(Nc2ncc(Cl)c(O[C@@H]3CO[C@H]4[C@@H]3OC[C@H]4O)n2)c1 [LS 5-77]	–	–	–	–	556	93.9	–	–	–	–	strong and selective JAK3 kinase inhibitory activity	103	1660	106	447	1400	0.00125 µM and 0.00239 µM
C=CC(=O)Nc1cc(Nc2ncc(Cl)c(O[C@@H]3CO[C@H]4[C@@H]3OC[C@H]4O)n2)ccc1N(C)CCO [LS 5-74]	91.8	3950	181	448	1120	226	1520	0.00737	0.00426	–	strong and selective JAK3 kinase inhibitory activity	–	–	–	–	–	–

Continued by falling IC50 ([1]; Homo sapiens, K562, 72 hours), values first:

IC50 ([1]; Homo sapiens, K562, 72 hours) [nM]	IC50 ([2]; Homo sapiens, Jurkat) [nM]	IC50 ([3]; Homo sapiens, U-937, 72 hours) [nM]	IC50 ([4]; Homo sapiens, HuT78, 72 hours) [nM]	IC50 (JAK1) [nM]	IC50 (TYK2) [nM]	IC50 (JAK2; ATP concentration Km) [nM]	IC50 (JAK3; ATP concentration 1 mM) [µM]	IC50 (JAK3; ATP concentration Km) [µM]	IC50 (JAK3; ATP concentration 1 mM, in μM) [µM]	SMILES	JAK3 kinase inhibitory activity and selectivity (in words) (JAK3)	IC50 ([1]; 72 hours) [nM]	IC50 [2] [nM]	IC50 ([3]; 72 hours) [nM]	IC50 ([4]; 72 hours) [nM]	IC50 (JAK2) [nM]	IC50 (JAK3)
2760	2780	524	928	2670	430	1540	4.38	0.0905	–	C/C=C/C(=O)Nc1cc(Nc2ncc(Cl)c(O[C@@H]3CO[C@H]4[C@@H]3OC[C@H]4O)n2)ccc1N1CCC(N2CCN(C)CC2)CC1 [LS 5-72]	–	–	–	–	–	–	–
897	275	15.8	272	270	186	606	0.00174	0.00198	–	C=CC(=O)Nc1cc(Nc2ncc(Cl)c(O[C@@H]3CO[C@H]4[C@@H]3OC[C@H]4O)n2)ccc1N1CCC(N(C)C)C1 (stereo partly drawn) [LS 5-150]	strong and selective JAK3 kinase inhibitory activity	–	–	–	–	–	–
866	290	21.1	92.4	1040	241	437	0.00268	0.0025	–	C=CC(=O)Nc1cc(Nc2ncc(Cl)c(O[C@@H]3CO[C@H]4[C@@H]3OC[C@H]4O)n2)ccc1N1CCC(N(C)C)CC1 [LS 5-102]	strong and selective JAK3 kinase inhibitory activity	–	–	–	–	–	–
354	6340	739	3380	618	421	541	–	0.0474	> 10	COc1cc(Nc2ncc(Cl)c(O[C@@H]3CO[C@H]4[C@@H]3OC[C@H]4O)n2)ccc1N1CCC(N2CCN(C)CC2)CC1 [LS 4-143]	–	–	–	–	–	–	–
216	128	12	75.3	481	166	362	0.00217	0.00219	–	C=CC(=O)Nc1cc(Nc2ncc(Cl)c(O[C@@H]3CO[C@H]4[C@@H]3OC[C@H]4O)n2)ccc1N1CCN(CC)CC1 [LS 5-143]	strong and selective JAK3 kinase inhibitory activity	–	–	–	–	–	–
117	2240	246	476	1730	312	1630	4.94	0.0724	–	C=C(C)C(=O)Nc1cc(Nc2ncc(Cl)c(O[C@@H]3CO[C@H]4[C@@H]3OC[C@H]4O)n2)ccc1N1CCC(N2CCN(C)CC2)CC1 [LS 5-73]	–	–	–	–	–	–	–
70.9	34.1	5.78	19.2	895	233	1060	0.0206	0.0055	–	C=CC(=O)Nc1cc(Nc2ncc(Cl)c(O[C@@H]3CO[C@H]4[C@@H]3OC[C@H]4O)n2)ccc1N1CCC2(CCN(C)CC2)CC1 [LS 5-91]	strong and selective JAK3 kinase inhibitory activity	–	–	–	–	–	–
47.2	288	19.6	428	190	148	–	0.00129	0.0015	–	C=CC(=O)Nc1cc(Nc2ncc(Cl)c(O[C@@H]3CO[C@H]4[C@@H]3OC[C@H]4O)n2)ccc1N1C[C@@H]2C[C@H]1CO2 [LS 5-152, N-(2-(((1S,4S)-2-oxa-5-azabicyclic[2.2.1]heptane-5-yl)-5-(5-chloro-4-(((3R,3aR,6R, 6aR)-6-hydroxyhexahydrofurano[3,2-b]furan-3-yl)oxygen)pyrimidin-2-yl)amino)phenyl) acrylamide]	–	–	–	–	–	–	–
39.9	551	69.2	463	4770	3120	2080	0.00435	0.0039	–	C=CC(=O)Nc1cc(Nc2ncc(Cl)cn2)ccc1N1CCC(N2CCN(C)CC2)CC1 [LS 5-126, N-(5-((5-chloropyrimidin-2-yl)amino)-2-(4-(4-methylpiperazin-1-yl)piperidin-1-yl)phenyl) acrylamide]	–	–	–	–	–	–	–
